Data as given in US20260240845A1, “METHODS FOR TREATING OR PREVENTING CORONAVIRUS INFECTION SKELETAL SEQUELAE” (priority 2023, published 2026).
“Also recorded” adds a separate entry of the source.

Tests used:
[1] = system: mice injected with SP RBD; set-up: species or system Balb/c mice; details: mouse, in vivo
[2] = system: SARS-COV-2-infected hamsters; set-up: species or system golden Syrian hamsters (Mesocricetus auratus); details: hamster, in vivo
[3] = system: SARS-COV-2-infected hamsters; set-up: species or system golden Syrian hamsters (Mesocricetus auratus); details: hamster, in vivo; remark: listed apart in the source
C28/12 = experiment: Rescue effect of macitentan on SP RBD-induced oxidative stress and mitochondrial dynamics in chondrocytes (CellROX, MitoTracker); assay type: cell-based, human; details: C28/12 pre-treated with 10 μM Macitentan for 30 minutes, then SP RBD 10 μg/ml for 1 h
Description: Chondrocyte cell lines C28/12 (human), ATDC5 (mouse) and human umbilical vein endothelial cells (HUVEC) were received as gifts from Prof. Danny Chan from the University of Hong Kong, Prof. Limin Rong from Sun Yat-Sen University and Prof.
Mo Yang from the Hong Kong Polytechnic University respectively. Both chondrocyte cell lines were maintained in DMEM/F12 culture medium supplemented with 5% heat-inactivated FBS, 50 U ml^−1 penicillin and 50 μg ml-^1 streptomycin. HUVEC were cultured in endothelial cell medium with 1% endothelial cell growth supplement and 1% antibiotic solution (ScienCell).
To investigate the rescue effect of Macitentan on RBD-induced oxidative stress accumulation and change in mitochondrial dynamics, cells seeded on coverslips were pre-treated with 10 μM Macitentan for 30 minutes before adding RBD for an hour.
To evaluate cellular oxidative stress, CellROX® Deep Red Reagent solution (Invitrogen) was used according to the manufacturer's instructions. Positive signal was visualized by excitation/emission at 640/665 nm. For visualising mitochondrial morphology, we stained the cells using Mito Tracker® Red CMXRos (Invitrogen) with excitation/emission at 579/599 nm. Cells were then counterstained and mounted by ProLong® Gold antifade reagent with 4′, 6-diamidino-2-phenylindole (DAPI). All the images were captured using Leica TCS SPE Confocal microscope.

Q: `CCCNS(=O)(=O)Nc1ncnc(OCCOc2ncc(Br)cn2)c1-c1ccc(Br)cc1` [macitentan] was tested. Which “SP RBD-induced subchondral bone loss (micro-CT, proximal epiphysis of tibia)” value [1] did it give?
A: rescue effect of macitentan on SP RBD-induced bone loss

Q: And the “accumulation of senescent chondrocytes (p16INK4a, HMGB1) in articular cartilage” value [1]?
A: preventing accumulation of senescent chondrocytes

Q: And the “proteoglycan in articular cartilage (Safranin O/fast green)” value [1]?
A: performed better in terms of preserving proteoglycan

Q: And the “paw withdrawal threshold / nociceptive tolerance (von Frey filament test)” value ([1]; ip, 0.3 mg/kg)?
A: able to attain the same nociceptive tolerance as high dose after 12 days

Q: What about the “paw withdrawal threshold (von Frey filament test)” value ([1]; ip, 3 mg/kg) of the same compound?
A: increase in paw withdrawal threshold after 5 days of treatment; also recorded: faster analgesic effect at the higher dose

Q: What about the “BMD in tibial epiphysis (micro-CT)” value [2] of the same compound?
A: improvement in subchondral bone mass and microstructure; also recorded: significant increase in BMD and BV/TV

Q: What about the “BV/TV in tibial epiphysis (micro-CT)” value [2] of the same compound?
A: improvement in subchondral bone mass and microstructure; also recorded: significant increase in BMD and BV/TV

Q: And the “amount of viral spike protein retained (subchondral bone marrow cavity)” value [2]?
A: could reduce the amount of viral spike protein retained

Q: And the articular cartilage structure [2]?
A: did not lead to further improvement in articular cartilage structurally

Q: What about the chondrocyte dropout [2] of the same compound?
A: slight yet not significant improvement

Q: And the cyst formation [2]?
A: slight yet not significant improvement

Q: What about the “expression level of vWF in bone marrow” value [2] of the same compound?
A: could effectively lower the expression level of vWF

Q: And the “number of SP7+ osteoblast progenitors” value [2]?
A: increased the number of SP7^+ osteoblast progenitors

Q: And the “number of TRAP+ osteoclasts” value [2]?
A: without affecting the number of TRAP^+ osteoclasts

Q: And the “number of senescent chondrocytes in articular cartilage (p16INK4a and HMGB1 staining)” value [2]?
A: effectively lower the number of senescent chondrocytes

Q: What about the “oxidative stress near vessels (4HNE staining)” value [2] of the same compound?
A: reduction of oxidative stress near vessels

Q: What about the “trabecular number in tibial epiphysis (micro-CT)” value [2] of the same compound?
A: improvement in subchondral bone mass and microstructure

Q: And the “trabecular separation in tibial epiphysis (micro-CT)” value [2]?
A: improvement in subchondral bone mass and microstructure

Q: What about the “trabecular thickness in tibial epiphysis (micro-CT)” value [2] of the same compound?
A: improvement in subchondral bone mass and microstructure

Q: And the “4HNE expression level in bone marrow cavity of subchondral bone (oxidative stress)” value [3]?
A: lowered vWF and 4HNE expression level

Q: And the “BV/TV (micro-CT)” value [3]?
A: no significant difference

Q: And the “amount of viral spike protein at local joint tissue (subchondral bone marrow cavity)” value [3]?
A: tended to lower the amount of viral spike protein

Q: What about the “area of the cysts at the osteochondral junction” value [3] of the same compound?
A: effectively reducing the area of the cysts

Q: What about the articular surface roughness [3] of the same compound?
A: No statistical significance

Q: And the “collagen loss (Masson's trichrome staining)” value [3]?
A: prevented virus-induced collagen loss

Q: What about the “fibrin exudate at the osteochondral junction” value [3] of the same compound?
A: decreasing the fibrin exudate

Q: What about the “number of SP7+ osteoblasts progenitors” value [3] of the same compound?
A: without affecting the number of SP7^+ osteoblasts progenitors

Q: What about the “number of TRAP+ osteoclasts in subchondral bone” value [3] of the same compound?
A: significantly lower number of TRAP^+ osteoclasts

Q: And the “number of chondrocytes in articular cartilage” value [3]?
A: More chondrocytes were observed

Q: And the “number of cytoplasmic HMGB1 cells in articular cartilage” value [3]?
A: decrease in the number of nuclear p16^INK4a and cytoplasmic HMGB1 cells

Q: What about the “number of nuclear p16INK4a cells in articular cartilage” value [3] of the same compound?
A: decrease in the number of nuclear p16^INK4a

Q: What about the “subchondral BMD (micro-CT)” value [3] of the same compound?
A: could restore subchondral BMD

Q: And the “vWF expression level in bone marrow cavity of subchondral bone” value [3]?
A: lowered vWF and 4HNE expression level

Q: And the “SP RBD-induced cellular oxidative stress (CellROX staining)” value (C28/12)?
A: effectively lowered SARS-COV-2 spike protein-induced increase in oxidative stress

Q: And the “mitochondrial dynamics / morphology (MitoTracker staining)” value (C28/12)?
A: showed restoration of rod-like structures
